For data set [1] the following is noted: rat, in vivo.
Description: (§1) All rats were fed a basal diet for 5 days prior to initiation of dosing on Day 0. At Day 0, animals in Groups 1 to 5 and 7 received the appropriate formulated diet. The diet was available ad libitum. […] The total amount of the diet consumed by each animal was determined every 3 to 4 days.
The nature of data set [2]: Fat binding feeding study in rats on formulated high fat diet.
Description: as §1

In data set [1], `CCCCCCCCCCC[C@@H](C[C@@H]1OC(=O)[C@H]1CCCCCC)OC(=O)[C@H](CC(C)C)NC=O` [Xenical] returned an ALT of 54 IU/L, an AST of 104 IU/L and a Bilirubin of 0.4 mg/dL. In addition, the Triglycerides in data set [2] (blood of rats, test article in diet) worked out at 107 mg/dL. The “Weight Gain” value in data set [2] (rats, test article in diet ad libitum) worked out at 425 gms.

For the origin of these results see patent publication US20030018176A1, “Dry acid-chitosan complexes” (priority 1999, published 2003).
